Results published in patent publication US8778987B2, “Use of 4-hydroxychalcone derivatives for masking an unpleasant taste” (Symrise AG, priority 2008, dated 2014).

Experiments:
Assay type in all cases: in vivo
[1] = system: bitter impression of aqueous caffeine solution; experiment: Reducing bitterness of a bitter substance solution, rated by a panel of experts (caffeine); settings: 500 ppm caffeine; for Bitter impression (1-10) with: error = 95% confidence range
Experimental: (§1) In order to quantify the reduction in the bitter impression, the bitterness of an aqueous bitter substance solution and a sample containing the same quantity of bitter substance and a varying quantity of the exemplary compound, was determined by a panel of experts (rating 0 [not bitter] to 10 [extremely bitter]). Evaluation took place by calculating the reduction (in %) in the bitter impression from the average values of the assessments of the bitter substance solution or the solutions containing bitter substance and exemplary compound. […] (2,4-DHB) was used as a comparison from U.S. Pat. No. 5,643,941.

[2] = system: bitter impression of aqueous salicin solution; experiment: Reducing bitterness of a bitter substance solution, rated by a panel of experts (salicin); settings: 30 ppm substance, 250 ppm salicin
Experimental: as §1

[3] = system: taste impressions of meat stock with 0.4 wt. % sodium chloride and 0.4 wt. % potassium chloride; experiment: Reduction in unpleasant taste impressions of potassium chloride-containing meat stock (triangle difference testing); settings: 30 ppm
Experimental: A fat- and common salt-free meat stock is prepared with 0.4 wt. % sodium chloride and 0.4 wt. % potassium chloride (in each case relative to total weight) (comparison solution A). The same solution is prepared again and a quantity of phloretin (compound 4 from Example 1) is added. Solution A is served up to the testers once with the designation “standard solution”, and at the same time solution A and solution B are served up as “test solution 1” or “test solution 2” in a random order unknown to the respective tester (i.e. solutions A and B may have different designations for different testers; each tester has to test three solutions). In a first test phase, the testers are asked whether one of the three solutions tastes different from the other two (triangle difference testing). If the response to this question is “No”, the test is stopped for that tester. If the response to this question is “Yes”, the tester has to quantify the flavor qualities, listed below, of “test solution 1” or “test solution 2” deviating from the “standard solution” (relative to the “standard solution”, 0 flavor quality identical to the standard, −4 very much weaker than the standard, +4 very much stronger than the standard). Taking as basis the results from all the testers, the average of all deviations from the “standard solution” is calculated for the individual flavor qualities.

[4] = system: bitter impression of aqueous quinine hydrochloride solution; experiment: Reducing bitterness of a bitter substance solution, rated by a panel of experts (quinine hydrochloride); settings: 30 ppm substance, 5 ppm quinine hydrochloride
Experimental: as §1

Row | Structure (SMILES) | % reduction in bitter impression ([1]; 100 ppm substance) | Tester positive (number of testers who were able to identify masking) ([1]; 100 ppm substance, 15 testers total) | Bitter impression (1-10) with ([1]; 100 ppm substance) | % reduction in bitter impression [2] | Tester positive (number of testers who were able to identify masking) ([2]; 15 testers total) | Bitter impression (1-10) with ([2]; error = 95% confidence range) | Positive testers ([3]; of 21 testers, triangle difference testing) | Aromaticity, average deviation from standard solution ([3]; scale −4 to +4) | Bitter, average deviation from standard solution ([3]; scale −4 to +4) | Mouth fullness, average deviation from standard solution ([3]; scale −4 to +4) | Sour, average deviation from standard solution ([3]; scale −4 to +4) | Sweet, average deviation from standard solution ([3]; scale −4 to +4) | Salty, average deviation from standard solution ([3]; scale −4 very much weaker to +4 very much stronger than the standard) | % reduction in bitter impression ([1]; 50 ppm substance) | Tester positive (number of testers who were able to identify masking) ([1]; 50 ppm substance) | Bitter impression (1-10) with ([1]; 50 ppm substance) | % reduction in bitter impression [4] | Tester positive (number of testers who were able to identify masking) ([4]; 15 testers total) | Bitter impression (1-10) with ([4]; error = 95% confidence range)
1 | O=C(O)c1ccc(O)cc1O [2,4-DHB, 2,4-dihydroxybenzoic acid, reference compound] | 3%, n.s. | 9 | 5.0 ± 1.0 |  |  |  |  |  |  |  |  |  |  |  |  |  |  |  | 
2 | O=C(CCc1ccc(O)cc1)c1c(O)cc(O)cc1O [Compound 4, 3-(4-hydroxyphenyl)-1-(2,4,6-trihydroxy-phenyl)propan-1-one] |  |  |  | 18%, p < 0.1 | 10 | 6.0 ± 1.8 | 16 (p < 0.05) | −0.1 | −0.4 | 0.3 | 0.1 | 0.9 | −0.7 | 28%, p < 0.05 | 13 | 3.9 ± 1.8 | 25%, n.s. | 10 | 2.0 ± 1.4
